One experiment has as its target CDK7/CyclinH/Mat1 (Homo sapiens, UniProt P50613). Kind of experiment: ADP Glo kinase assay, CDK7/CyclinH/Mat1. It counts as biochemical. Conditions: for remaining activity at 1 µM: compound at 1 μM, read-out: Residual enzymatic activity (%) at 1 μM, CDK7 H. In a few lines: (§1)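 First, compounds are diluted 1:3 across ten points from 10 to 0.0005 μM in 0.5% DMSO. Next, kinase reactions run at room temperature for an optimised period. Finally, ADP Glo reagent is added to stop them.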

The next experiment deals with CDK4/CyclinD1 (Homo sapiens, UniProt P11802). Kind of experiment: ADP Glo kinase assay, CDK4/CyclinD1. It counts as biochemical. Conditions: compound at 1 μM, read-out: Residual enzymatic activity (%) at 1 μM, CDK4 D1. In a few lines: as §1
CDK4/CyclinD1, sequence (P11802 whole entry, species assumed): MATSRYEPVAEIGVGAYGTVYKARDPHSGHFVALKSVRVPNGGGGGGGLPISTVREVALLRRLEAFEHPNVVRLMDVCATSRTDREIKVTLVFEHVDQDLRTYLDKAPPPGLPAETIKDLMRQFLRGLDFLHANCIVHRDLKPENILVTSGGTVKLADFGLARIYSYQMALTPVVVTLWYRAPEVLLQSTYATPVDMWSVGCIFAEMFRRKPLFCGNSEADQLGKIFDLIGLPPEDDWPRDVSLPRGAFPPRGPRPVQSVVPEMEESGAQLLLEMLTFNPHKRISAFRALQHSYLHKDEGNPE
CDK4/CyclinD1, sequence (P24385 whole entry partner, species assumed): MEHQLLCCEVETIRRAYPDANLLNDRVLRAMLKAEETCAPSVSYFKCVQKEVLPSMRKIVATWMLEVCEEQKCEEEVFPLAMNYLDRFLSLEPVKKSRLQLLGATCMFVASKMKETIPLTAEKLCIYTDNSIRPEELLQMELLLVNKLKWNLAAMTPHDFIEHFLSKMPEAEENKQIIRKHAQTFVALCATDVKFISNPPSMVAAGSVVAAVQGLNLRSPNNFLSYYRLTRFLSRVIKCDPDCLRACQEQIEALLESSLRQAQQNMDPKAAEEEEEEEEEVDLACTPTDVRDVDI
On the technique in general: In ADP-Glo the light output rises with the ADP produced.

The next experiment concerns the target CDK2/CyclinA2 (Homo sapiens, UniProt P24941). As to the kind of experiment: ADP Glo kinase assay, CDK2/CyclinA2. It counts as biochemical. Conditions: for remaining activity at 1 µM: compound at 1 μM, read-out: Residual enzymatic activity (%) at 1 μM, CDK2 A; for Ki: Km ATP, read-out: Enzymatic inhibition, Ki, CDK2 A. The essentials:
as §1

The next experiment has as its system MV-4-11. As to the kind of experiment: Proliferation assay (resazurin, leukemia cell lines), MV-4-11. It counts as cell-based. The conditions noted are these: Homo sapiens, MV4-11, read-out: 72 h Growth inhibition GI50, MV-4-11 cells. The source says:
The following compounds were used as comparators.
(Resazurin is reduced to fluorescent resorufin, in cell work by metabolically active cells.)

In a further experiment the target is CDK9/CyclinT1 (Homo sapiens, UniProt P50750). As to the kind of experiment: ADP Glo kinase assay, CDK9/CyclinT1. It counts as biochemical. The conditions noted are these: CDK9/CyclinT1; Km ATP; read-out: Enzymatic inhibition, Ki, CDK9 T1. In a few lines: as §1
CDK9/CyclinT1, sequence (P50750 whole entry, species assumed): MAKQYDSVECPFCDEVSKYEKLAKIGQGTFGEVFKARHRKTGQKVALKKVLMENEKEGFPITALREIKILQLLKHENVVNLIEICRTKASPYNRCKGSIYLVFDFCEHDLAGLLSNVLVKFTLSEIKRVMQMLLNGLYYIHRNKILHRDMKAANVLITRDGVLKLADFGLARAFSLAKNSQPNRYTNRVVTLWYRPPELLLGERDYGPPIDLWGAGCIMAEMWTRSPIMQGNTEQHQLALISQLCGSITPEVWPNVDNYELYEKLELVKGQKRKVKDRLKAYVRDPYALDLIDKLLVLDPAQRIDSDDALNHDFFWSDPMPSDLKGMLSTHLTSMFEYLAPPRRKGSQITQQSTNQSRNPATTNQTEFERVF
CDK9/CyclinT1, sequence (O60563 whole entry partner, species assumed): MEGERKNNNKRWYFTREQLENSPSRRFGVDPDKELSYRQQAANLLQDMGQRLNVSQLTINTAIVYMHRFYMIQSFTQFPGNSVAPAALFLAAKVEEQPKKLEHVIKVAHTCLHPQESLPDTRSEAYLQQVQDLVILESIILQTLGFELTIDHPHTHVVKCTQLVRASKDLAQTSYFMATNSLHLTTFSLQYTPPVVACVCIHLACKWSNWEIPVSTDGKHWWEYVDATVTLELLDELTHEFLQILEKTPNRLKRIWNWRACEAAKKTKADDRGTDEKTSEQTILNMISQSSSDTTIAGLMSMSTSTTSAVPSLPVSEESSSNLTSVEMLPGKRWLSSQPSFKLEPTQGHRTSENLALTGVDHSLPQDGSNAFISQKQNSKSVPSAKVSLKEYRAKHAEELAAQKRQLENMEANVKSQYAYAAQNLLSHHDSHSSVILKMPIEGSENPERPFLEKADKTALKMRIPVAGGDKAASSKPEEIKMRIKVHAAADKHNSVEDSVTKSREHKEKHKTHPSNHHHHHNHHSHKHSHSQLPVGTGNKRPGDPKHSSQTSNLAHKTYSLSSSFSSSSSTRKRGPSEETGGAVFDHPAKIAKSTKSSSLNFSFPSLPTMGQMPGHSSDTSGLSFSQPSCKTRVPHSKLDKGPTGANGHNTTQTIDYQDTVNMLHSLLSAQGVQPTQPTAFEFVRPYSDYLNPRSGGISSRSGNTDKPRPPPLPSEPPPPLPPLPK
The next experiment addresses CDK1/CyclinB (Homo sapiens, UniProt P06493). Kind of experiment: ADP Glo kinase assay, CDK1/CyclinB. It counts as biochemical. The conditions noted are these: for remaining activity at 1 µM: compound at 1 μM, read-out: Residual enzymatic activity (%) at 1 μM, CDK1 B. The essentials:
as §1

In a further experiment the target is CDK6/CyclinD3 (Homo sapiens, UniProt Q00534). As to the kind of experiment: ADP Glo kinase assay, CDK6/CyclinD3. It counts as biochemical. Conditions: for remaining activity at 1 µM: compound at 1 μM, read-out: Residual enzymatic activity (%) at 1 μM, CDK6 D3. The essentials: as §1
CDK6/CyclinD3, sequence (Q00534 whole entry, species assumed): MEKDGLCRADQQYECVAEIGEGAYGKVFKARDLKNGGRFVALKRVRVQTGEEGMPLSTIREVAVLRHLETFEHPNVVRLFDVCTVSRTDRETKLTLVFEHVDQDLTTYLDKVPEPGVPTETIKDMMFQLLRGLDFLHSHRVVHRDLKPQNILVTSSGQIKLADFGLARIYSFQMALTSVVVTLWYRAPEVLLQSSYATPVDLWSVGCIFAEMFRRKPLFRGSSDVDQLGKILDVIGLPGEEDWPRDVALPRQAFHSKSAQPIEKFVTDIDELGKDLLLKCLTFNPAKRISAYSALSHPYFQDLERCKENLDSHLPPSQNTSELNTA
CDK6/CyclinD3, sequence (P30281 whole entry partner, species assumed): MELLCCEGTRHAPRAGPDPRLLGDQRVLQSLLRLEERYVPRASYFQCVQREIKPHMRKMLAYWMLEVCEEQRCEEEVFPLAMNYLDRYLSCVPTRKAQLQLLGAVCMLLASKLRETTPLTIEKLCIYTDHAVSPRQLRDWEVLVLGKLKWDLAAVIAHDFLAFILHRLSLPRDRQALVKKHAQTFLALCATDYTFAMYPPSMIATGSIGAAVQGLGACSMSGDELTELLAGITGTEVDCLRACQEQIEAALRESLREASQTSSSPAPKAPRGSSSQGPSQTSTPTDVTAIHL
A further experiment has as its target T1, FLT3-ITD (Homo sapiens, UniProt P36888).
T1 sequence (P36888 1-993): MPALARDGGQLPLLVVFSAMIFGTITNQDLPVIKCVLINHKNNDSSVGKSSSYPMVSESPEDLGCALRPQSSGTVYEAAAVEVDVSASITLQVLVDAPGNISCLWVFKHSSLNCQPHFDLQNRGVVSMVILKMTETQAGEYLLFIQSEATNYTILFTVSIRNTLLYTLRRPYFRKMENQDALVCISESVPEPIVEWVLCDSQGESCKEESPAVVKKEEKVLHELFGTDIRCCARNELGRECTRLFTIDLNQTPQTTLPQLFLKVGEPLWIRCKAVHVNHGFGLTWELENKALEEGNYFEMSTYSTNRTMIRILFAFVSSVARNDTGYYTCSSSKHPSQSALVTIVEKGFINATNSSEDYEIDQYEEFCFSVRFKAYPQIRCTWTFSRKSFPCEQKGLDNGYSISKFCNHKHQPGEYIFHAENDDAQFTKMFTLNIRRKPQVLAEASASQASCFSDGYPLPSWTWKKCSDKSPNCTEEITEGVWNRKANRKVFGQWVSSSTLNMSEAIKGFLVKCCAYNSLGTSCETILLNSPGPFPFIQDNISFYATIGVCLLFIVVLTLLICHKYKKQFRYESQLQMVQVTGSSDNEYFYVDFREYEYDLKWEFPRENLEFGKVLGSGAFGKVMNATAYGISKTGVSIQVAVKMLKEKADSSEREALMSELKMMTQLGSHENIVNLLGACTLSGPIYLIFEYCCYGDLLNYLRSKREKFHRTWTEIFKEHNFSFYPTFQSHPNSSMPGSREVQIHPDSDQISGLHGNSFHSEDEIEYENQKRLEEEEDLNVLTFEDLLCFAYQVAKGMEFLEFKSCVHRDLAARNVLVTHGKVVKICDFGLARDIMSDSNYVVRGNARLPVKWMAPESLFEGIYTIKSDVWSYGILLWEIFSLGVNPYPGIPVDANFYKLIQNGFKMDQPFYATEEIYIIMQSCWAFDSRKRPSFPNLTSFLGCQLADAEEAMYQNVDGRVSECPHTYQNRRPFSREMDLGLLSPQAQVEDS
As to the kind of experiment: ADP Glo kinase assay, FLT3-ITD. The conditions noted are these: Km ATP 100 μM, read-out: Enzymatic inhibition, Ki, FLT3-ITD. It counts as biochemical. In a few lines: as §1

CDK1/CyclinB, sequence (P06493 whole entry, species assumed): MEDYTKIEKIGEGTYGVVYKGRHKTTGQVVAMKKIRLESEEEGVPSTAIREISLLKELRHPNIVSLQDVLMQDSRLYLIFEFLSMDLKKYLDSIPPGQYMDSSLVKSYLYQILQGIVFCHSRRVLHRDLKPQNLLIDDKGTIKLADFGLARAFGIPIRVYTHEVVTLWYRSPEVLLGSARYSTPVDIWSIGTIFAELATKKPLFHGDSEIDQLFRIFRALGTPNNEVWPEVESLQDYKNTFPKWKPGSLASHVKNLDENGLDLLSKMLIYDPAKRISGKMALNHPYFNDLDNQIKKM
CDK1/CyclinB, sequence (P14635 whole entry partner, species assumed): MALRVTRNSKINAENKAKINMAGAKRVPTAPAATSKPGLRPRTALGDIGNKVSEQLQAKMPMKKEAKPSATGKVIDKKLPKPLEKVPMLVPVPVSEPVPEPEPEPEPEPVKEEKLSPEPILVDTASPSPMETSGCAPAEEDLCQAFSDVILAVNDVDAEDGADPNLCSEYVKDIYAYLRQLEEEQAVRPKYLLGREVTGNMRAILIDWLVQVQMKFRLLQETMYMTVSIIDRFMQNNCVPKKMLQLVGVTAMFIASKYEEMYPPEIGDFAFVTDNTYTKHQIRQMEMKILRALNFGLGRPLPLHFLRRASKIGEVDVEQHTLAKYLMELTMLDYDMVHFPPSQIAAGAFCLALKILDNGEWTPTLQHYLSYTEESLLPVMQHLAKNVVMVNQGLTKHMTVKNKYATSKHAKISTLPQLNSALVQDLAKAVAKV
CDK7/CyclinH/Mat1, sequence (P50613 whole entry, species assumed): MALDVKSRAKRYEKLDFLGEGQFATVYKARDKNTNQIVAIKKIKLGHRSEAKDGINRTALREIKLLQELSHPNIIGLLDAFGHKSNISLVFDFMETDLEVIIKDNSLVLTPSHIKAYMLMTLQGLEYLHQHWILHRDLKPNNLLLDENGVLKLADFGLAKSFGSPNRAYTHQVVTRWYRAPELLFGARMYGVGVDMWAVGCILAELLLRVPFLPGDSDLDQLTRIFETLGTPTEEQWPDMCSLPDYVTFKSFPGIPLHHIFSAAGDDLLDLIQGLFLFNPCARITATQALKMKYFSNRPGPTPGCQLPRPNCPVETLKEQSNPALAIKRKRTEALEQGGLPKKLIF
CDK7/CyclinH/Mat1, sequence (P51946 whole entry partner, species assumed): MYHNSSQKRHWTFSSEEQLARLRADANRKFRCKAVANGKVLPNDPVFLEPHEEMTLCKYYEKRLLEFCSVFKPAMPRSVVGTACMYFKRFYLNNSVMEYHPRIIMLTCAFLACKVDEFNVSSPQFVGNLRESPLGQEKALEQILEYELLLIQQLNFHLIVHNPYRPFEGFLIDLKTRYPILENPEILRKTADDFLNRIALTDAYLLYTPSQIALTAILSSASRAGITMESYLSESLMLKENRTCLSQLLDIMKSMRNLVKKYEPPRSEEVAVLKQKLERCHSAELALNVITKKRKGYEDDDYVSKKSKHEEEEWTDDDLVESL
CDK7/CyclinH/Mat1, sequence (P51948 whole entry partner, species assumed): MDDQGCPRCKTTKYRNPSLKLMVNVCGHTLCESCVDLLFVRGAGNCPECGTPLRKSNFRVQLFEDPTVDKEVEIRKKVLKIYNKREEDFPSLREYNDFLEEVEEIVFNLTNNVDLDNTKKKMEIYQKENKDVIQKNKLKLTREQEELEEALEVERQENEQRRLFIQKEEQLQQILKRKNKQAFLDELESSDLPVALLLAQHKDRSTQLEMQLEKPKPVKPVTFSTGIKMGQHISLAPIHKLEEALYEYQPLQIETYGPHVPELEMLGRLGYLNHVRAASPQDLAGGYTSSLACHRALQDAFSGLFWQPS

Usually GI50 stands for the concentration that inhibits growth by half. One may read the Ki as the equilibrium dissociation constant of an inhibitor or competing ligand from its target. Turning to `COc1ccc(-c2ccc3ncc(-c4ccnc(Nc5ccc(N6CCN(C)CC6)nc5)n4)n3c2)cn1` [Compound 43, 4-(6-(6-Methoxypyridin-3-yl)imidazo[1,2-a]pyridin-3-yl)-N-(6-(4-methylpiperazin-1-yl)pyridin-3-yl)pyrimidin-2-amine], the remaining activity at 1 µM on CDK7/CyclinH/Mat1 was determined as 41%; on CDK4/CyclinD1 it was 68%; at CDK2/CyclinA2 it was 46%; at CDK1/CyclinB, 67%; on CDK6/CyclinD3, 46%. In addition, the GI50 in the experiment on MV-4-11 was 40 nM. Moreover, the Ki at CDK9/CyclinT1 is 66 nM; on FLT3-ITD, 24 nM.
As for `CC(=O)N1CCN(c2ccc(Nc3nccc(-c4cnc5ccc(Br)cn45)n3)cn2)CC1` [Compound 44, 1-(4-(5-((4-(6-Bromoimidazo[1,2-a]pyridin-3-yl)pyrimidin-2-yl)amino)pyridin-2-yl)piperazin-1-yl)ethan-1-one], the remaining activity at 1 µM at CDK7/CyclinH/Mat1 was determined as 77%; on CDK4/CyclinD1, 84%; on CDK2/CyclinA2 it was 28%; on CDK1/CyclinB, 56%; on CDK6/CyclinD3, 55%. For the same compound, the GI50 in the experiment with MV-4-11 was determined as 21 nM. The values for the Ki on CDK9/CyclinT1 and on FLT3-ITD were 719 nM and 137 nM, respectively.
Consider `CC(=O)N1CCN(c2ccc(Nc3nccc(-c4cnc5ccc(-c6ccccc6)cn45)n3)cn2)CC1` [Compound 45, 1-(4-(5-((4-(6-Phenylimidazo[1,2-a]pyridin-3-yl)pyrimidin-2-yl)amino)pyridin-2-yl)piperazin-1-yl)ethan-1-one], for which the remaining activity at 1 µM on CDK7/CyclinH/Mat1 amounted to 79%; at CDK4/CyclinD1, 91%; at CDK2/CyclinA2 it was 63%; on CDK1/CyclinB, 60%; on CDK6/CyclinD3, 60%. Besides, the GI50 in the experiment with MV-4-11 amounted to 12 nM. The Ki is 54 nM on CDK9/CyclinT1 and 444 nM on FLT3-ITD.
In the case of `CC(=O)N1CCN(c2ccc(Nc3nccc(-c4cnc5ccc(-c6ccncc6)cn45)n3)cn2)CC1` [Compound 46, 1-(4-(5-((4-(6-(Pyridin-4-yl)imidazo[1,2-a]pyridin-3-yl)pyrimidin-2-yl)amino)pyridin-2-yl)piperazin-1-yl)ethan-1-one], the remaining activity at 1 µM was determined as 71% at CDK7/CyclinH/Mat1; 92% on CDK4/CyclinD1; 62% at CDK2/CyclinA2; 21% at CDK1/CyclinB; 31% on CDK6/CyclinD3. Moreover, the GI50 in the experiment on MV-4-11 was determined as 25 nM. The values for the Ki at CDK9/CyclinT1 and at FLT3-ITD were 310 nM and 80 nM, respectively.
Regarding `CC(=O)N1CCN(c2ccc(Nc3nccc(-c4cnc5ccc(-c6cn[nH]c6)cn45)n3)cn2)CC1` [Compound 47, 1-(4-(5-((4-(6-(1H-Pyrazol-4-yl)imidazo[1,2-a]pyridin-3-yl)pyrimidin-2-yl)amino)pyridin-2-yl)piperazin-1-yl)ethan-1-one], the inhibition constant (Ki) stood at 262 nM at CDK7/CyclinH/Mat1 (Km ATP, read-out: Enzymatic inhibition, Ki, CDK7 H); 39 nM on CDK2/CyclinA2; 45 nM on CDK9/CyclinT1; 116 nM on CDK1/CyclinB (Km ATP, read-out: Enzymatic inhibition, Ki, CDK1 B); 444 nM at CDK6/CyclinD3 (Km ATP, read-out: Enzymatic inhibition, Ki, CDK6 D3); 25 nM on FLT3-ITD. In addition, the remaining activity at 1 µM on CDK4/CyclinD1 worked out at 51%. Moreover, the GI50 with MV-4-11 was 29 nM.
Consider `COc1ccc(-c2ccc3ncc(-c4ccnc(Nc5ccc(N6CCN(C(C)=O)CC6)nc5)n4)n3c2)cn1` [Compound 48, 1-(4-(5-((4-(6-(6-Methoxypyridin-3-yl)imidazo[1,2-a]pyridin-3-yl)pyrimidin-2-yl)amino)pyridin-2-yl)piperazin-1-yl)ethan-1-one], for which the remaining activity at 1 µM amounted to 75% on CDK7/CyclinH/Mat1; 86% at CDK4/CyclinD1; 34% at CDK2/CyclinA2; 58% on CDK1/CyclinB; 30% at CDK6/CyclinD3. The GI50 in the experiment on MV-4-11 was 18 nM. Moreover, the values for the Ki on CDK9/CyclinT1 and at FLT3-ITD were 274 nM and 86 nM, respectively.
For `CC(=O)N1CCN(c2ccc(Nc3nccc(-c4cnc5ccc(-c6cccc7[nH]ccc67)cn45)n3)cn2)CC1` [Compound 49, 1-(4-(5-((4-(6-(1H-Indol-4-yl)imidazo[1,2-a]pyridin-3-yl)pyrimidin-2-yl)amino)pyridin-2-yl)piperazin-1-yl)ethan-1-one], the remaining activity at 1 µM is 81% on CDK7/CyclinH/Mat1; 92% on CDK4/CyclinD1; 51% at CDK2/CyclinA2; 94% on CDK1/CyclinB; 38% on CDK6/CyclinD3. Also, in the experiment on MV-4-11, the GI50 was 17 nM. Besides, the Ki is 171 nM on CDK9/CyclinT1 and greater than 500 nM at FLT3-ITD.
For `Cc1cnc(Nc2ccc(N3CCN(C)CC3)nc2)nc1-c1cnc2ccc(-c3ccccc3)cn12` [Compound 50, 5-Methyl-N-(6-(4-methylpiperazin-1-yl)pyridin-3-yl)-4-(6-phenylimidazo[1,2-a]pyridin-3-yl)pyrimidin-2-amine], the remaining activity at 1 µM on CDK7/CyclinH/Mat1 was 51%; on CDK4/CyclinD1 it was 94%; at CDK2/CyclinA2, 90%; on CDK1/CyclinB, 91%; at CDK6/CyclinD3 it was 79%. Besides, the GI50 in the experiment on MV-4-11 was found to be 813 nM. Also, the Ki on CDK9/CyclinT1 turned out to be 410 nM; on FLT3-ITD, 210 nM.
Take `CS(=O)(=O)N1CCN(c2ccc(Nc3nccc(-c4cnc5ccc(-c6ccco6)cn45)n3)cn2)CC1` [Compound 51, 4-(6-(Furan-2-yl)imidazo[1,2-a]pyridin-3-yl)-N-(6-(4-(methylsulfonyl)piperazin-1-yl)pyridin-3-yl)pyrimidin-2-amine]: the remaining activity at 1 µM at CDK7/CyclinH/Mat1 is 80%; on CDK4/CyclinD1, 96%; at CDK2/CyclinA2 it was 85%; at CDK1/CyclinB, 77%; on CDK6/CyclinD3 it was 43%. In addition, the GI50 in the experiment with MV-4-11 worked out at 17 nM. In addition, the values for the Ki on CDK9/CyclinT1 and at FLT3-ITD were 286 nM and greater than 500 nM, respectively.
For the compound `CC(C)N1CCN(c2ccc(Nc3nccc(-c4cnc5ccc(-c6ccsc6)cn45)n3)cn2)CC1` [Compound 54, N-(6-(4-Isopropylpiperazin-1-yl)pyridin-3-yl)-4-(6-(thiophen-3-yl)imidazo[1,2-a]pyridin-3-yl)pyrimidin-2-amine], the remaining activity at 1 µM was 29% on CDK7/CyclinH/Mat1, 48% at CDK4/CyclinD1, 32% on CDK1/CyclinB and 24% on CDK6/CyclinD3. Besides, the Ki is 376 nM at CDK2/CyclinA2, 14 nM on CDK9/CyclinT1 and 11 nM on FLT3-ITD. Further, in the experiment with MV-4-11, the GI50 worked out at 50 nM.
On to `c1ccc(-c2ccc3ncc(-c4ccnc(Nc5ccc(NC6CCOCC6)nc5)n4)n3c2)cc1` [Compound 58, N^5-(4-(6-Phenylimidazo[1,2-a]pyridin-3-yl)pyrimidin-2-yl)-N^2-(tetrahydro-2H-pyran-4-yl)pyridine-2,5-diamine], for which the remaining activity at 1 µM at CDK7/CyclinH/Mat1 is 73%; at CDK4/CyclinD1, 33%; at CDK2/CyclinA2 it was 73%; at CDK1/CyclinB, 77%; at CDK6/CyclinD3, 45%. Also, the GI50 in the experiment with MV-4-11 was 28 nM. In addition, the Ki on CDK9/CyclinT1 stood at 401 nM; on FLT3-ITD, 140 nM.

The values are drawn from US20240158391A1, “DERIVATIVES OF 4-(IMIDAZO[1,2-A]PYRIDIN-3-YL)-N-(PYRIDIN-3-YL) PYRIMIDIN-2- AMINE FOR TREATING PROLIFERATIVE DISEASES AND CONDITIONS” (AUCENTRA THERAPEUTICS PTY LTD, priority 2019, published 2024).
